According to patent US20160106102A1, “KNOWN AND NEW HETEROCYCLIC COMPOUNDS AS PEST CONTROL AGENTS” (BAYER CROPSCIENCE AKTIENGESELLSCHAFT, priority 2013, published 2016):
“And” between values parts separate entries of the source, which are not always exact repeats. Equal values may be shown once. Read-outs that look alike come from different tables or passages of the source.

Experiments:
Myzus persicae [1] = experiment: Myzus persicae - sachet test; type: in vivo; conditions: 100% = all animals killed; for pest or weed control at 6 ppm / pest or weed control at 30 ppm: Myzus persicae, read-out: efficacy (kill in %)
Procedure, shortened: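 Green peach aphids feed through a sealed sachet on nutrient medium containing the water-diluted formulation (solvents: 2% N-methylpyrrolidone, 2% diacetone alcohol). Percent mortality read after the chosen time; 100% means all animals killed.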

[2] = log P determination by LC-MS in the acidic range; type: physicochemical
Excerpt: The LC-MS determination in the acidic range is effected at pH 2.7 using 0.1% aqueous formic acid and acetonitrile (contains 0.1% formic acid) as eluents, linear gradient from 10% acetonitrile to 95% acetonitrile. Alternatively, the determination is effected in the acidic range at pH 2.3 using 0.1% aqueous phosphoric acid and acetonitrile as eluents; linear gradient from 10% acetonitrile to 95% acetonitrile.

Myzus persicae [3] = experiment: Myzus persicae - spray test; type: in vivo; conditions: application rate of 500 g/ha, after 6 days, sprayed Chinese cabbage leaf discs infested by all stages, 100% = all aphids killed; for pest or weed control at 500 g/ha: Myzus persicae, foliar, 144 h, read-out: efficacy in %
Description: Myzus persicae—spray test Solvent: 78 parts by weight of acetone • • 1.5 parts by weight of dimethylformamide Emulsifier: 0.5 part by weight of alkylaryl polyglycol ether To produce an appropriate active ingredient formulation, 1 part by weight of active ingredient is mixed with the specified amounts of solvent and emulsifier, and the concentrate is diluted to the desired concentration with emulsifier-containing water. Discs of Chinese cabbage leaves (Brassica pekinensis) infested by all stages of the green peach aphid (Myzus persicae) are sprayed with an active ingredient formulation of the desired concentration. After 6 days, the efficacy in % is determined. 100% means that all the aphids have been killed; 0% means that no aphids have been killed.

[4] = application rate of 6 ppm in nutrient medium
[5] = application rate of 30 ppm in nutrient medium
[6] = pH 2.7, LC-MS in the acidic range, read-out: log P (acid)
[7] = pH 2.7, values given in the synthesis examples and NMR lists, read-out: HPLC-MS: log P

Row | log P (acid) ([2]; LC-MS in the acidic range) | chromatographic logP [2, 6] | chromatographic logP [2, 7] | log P (acid) ([2]; Table 2, compounds of the formula (I-2), acidic range pH 2.7 or pH 2.3) | SMILES | efficacy (kill in %) (Myzus persicae [1]; [4]) [%] | efficacy (kill in %) (Myzus persicae [1]; [5]) [%] | efficacy in % (Myzus persicae [3]) | pest or weed control at 6 ppm (Myzus persicae [1]; [4]) [%] | pest or weed control at 30 ppm (Myzus persicae [1]; [5]) [%] | pest or weed control at 500 g/ha (Myzus persicae [3]) [%]
1 | 0.81 | – | – | – | Cc1cc(NC(=O)c2cccnc2)nn1CC1OCCO1 [Compound I-1-180] | 80 | 100 | 100% | – | – | –
2 | 2.07 | – | – | – | Cc1cc(NC(=O)c2cccnc2)nn1Cc1ccc(Cl)s1 [Compound I-1-297] | – | 100 | 90% | – | – | –
3 | – | 2.04 | 2.04 | – | Cc1cc(NC(=O)c2cccnc2)nn1C(=O)OC(C)(C)C [Compound I-1-18, tert-Butyl 5-methyl-3-[(pyridin-3-ylcarbonyl)amino]-1H-pyrazole-1-carboxylate] | – | – | – | 100 | 100 | 100
4 | 1.24 | – | – | – | Cc1cc(NC(=S)c2cccnc2)nn1Cc1ncccn1 [Compound I-1-344] | 100 | 100 | 100% | – | – | –
5 | 1.08 | – | – | – | COC(=O)n1nc(NC(=O)c2cccnc2)cc1C [Compound I-1-126] | 100 | 100 | 90% | – | – | –
6 | 1.03 | – | – | – | Cc1cc(NC(=O)c2cccnc2)nn1Cc1noc(C(=O)N(C)C)n1 [Compound I-1-286] | 100 | 100 | 100% | – | – | –
7 | 1.27 | – | – | – | COc1nn(Cn2nc(NC(=O)c3cccnc3)cc2C)c(=O)n1C1CC1 [Compound I-1-144] | 100 | 100 | 90% | – | – | –
8 | 0.19 | – | – | – | Cc1cc(NC(=O)c2cccnc2)nn1C[S+](C)[O-] (centres unmarked) [Compound I-1-243] | 100 | 100 | 100% | – | – | –
9 | – | – | – | 0.00 | COc1nc(NC(=O)c2cccnc2)nn1C [Compound I-2-16] | – | 100 | 90% | – | – | –
10 | 1.45 | – | – | – | Cc1cc(NC(=O)c2cccnc2)nn1CCC(F)(F)F [Compound I-1-188] | 100 | 100 | 90% | – | – | –
11 | 1.56 | – | – | – | CCCNC(=O)n1nc(NC(=O)c2cccnc2)cc1C [Compound I-1-314] | 100 | 100 | 90% | – | – | –
12 | 0.12 | – | – | – | Cc1cc(NC(=O)c2cccnc2)nn1Cc1cccnc1 [Compound I-1-15] | 100 | 100 | 90% | – | – | –
13 | 1.44 | – | – | – | Cc1cc(NC(=O)c2cccnc2)nn1Cc1nnc(C(C)(C)C)o1 [Compound I-1-281] | 80 | 100 | 90% | – | – | –
14 | 1.38 | – | – | – | Cc1cc(NC(=O)c2cccnc2)nn1CC(=O)C1(Cl)CC1 [Compound I-1-260] | 100 | 100 | 90% | – | – | –
15 | 0.92 | – | – | – | Cc1cc(NC(=O)c2cccnc2)nn1C(C)C#N (centres unmarked) [Compound I-1-214] | 100 | 100 | 100% | – | – | –
16 | – | 1.11 | 1.11 | – | Cc1cc(NC(=O)c2cncc(F)c2)nn1Cc1ncccn1 [Compound I-1-7, 5-Fluoro-N-[5-methyl-1-(pyrimidin-2-ylmethyl)-1H-pyrazol-3-yl]nicotinamide] | – | – | – | 100 | 100 | 90
17 | 0.72 | – | – | – | Cc1cc(NC(=O)c2cccnc2)nn1Cn1nc(C)n(C)c1=O [Compound I-1-143] | 100 | 100 | 90% | – | – | –

Row | log P (acid) ([2]; LC-MS in the acidic range) | chromatographic logP [2, 6] | chromatographic logP [2, 7] | log P (acid) ([2]; Table 2, compounds of the formula (I-2), acidic range pH 2.7 or pH 2.3) | SMILES | efficacy (kill in %) (Myzus persicae [1]; [4]) [%] | efficacy (kill in %) (Myzus persicae [1]; [5]) [%] | efficacy in % (Myzus persicae [3]) | pest or weed control at 6 ppm (Myzus persicae [1]; [4]) [%] | pest or weed control at 30 ppm (Myzus persicae [1]; [5]) [%] | pest or weed control at 500 g/ha (Myzus persicae [3]) [%]
18 | 1.16 | – | – | – | Cc1ccn(Cn2nc(NC(=O)c3cccnc3)cc2C)n1 [Compound I-1-192] | 100 | 100 | 100% | – | – | –
19 | 0.76 | – | – | – | Cc1c(NC(=O)c2cccnc2)nn(Cc2ncccn2)c1C [Compound I-1-123] | 100 | 100 | 90% | – | – | –
20 | 1.27 | – | – | – | Cc1cc(NC(=O)c2cccnc2)nn1C(=O)NC1CC1 [Compound I-1-312] | 100 | 100 | 90% | – | – | –
21 | 1.43 | – | – | – | O=C(Nc1ccn(CC(F)(F)F)n1)c1cccnc1 [Compound I-1-10] | 100 | 100 | 90% | – | – | –
22 | 2 | – | – | – | Cc1cc(NC(=O)c2cccnc2)nn1C(=O)Oc1ccccc1 [Compound I-1-233] | 100 | 100 | 90% | – | – | –
23 | 0.74 | – | – | – | O=C(Nc1ccn(CC(F)F)n1)c1cccnc1 [Compound I-1-13] | 100 | 100 | 90% | – | – | –
24 | 1.51 | – | – | – | Cc1cc(NC(=O)c2cccnc2)nn1S(=O)(=O)c1ccccn1 [Compound I-1-279] | 100 | 100 | 90% | – | – | –
25 | 1.2 | – | – | – | Cc1cc(NC(=O)c2cccnc2)nn1C(=O)NCC1COCCO1 (centres unmarked) [Compound I-1-310] | 100 | 100 | 100% | – | – | –
26 | 1.45 | – | – | – | Cc1cc(NC(=O)c2cccnc2)nn1C(=O)NCC1CCCO1 (centres unmarked) [Compound I-1-311] | – | 100 | 90% | – | – | –
27 | 1.67 | – | – | – | Cc1cc(NC(=O)c2cccnc2)nn1C(=O)NC(C)(C)c1ncccn1 [Compound I-1-335] | 100 | 100 | 90% | – | – | –
28 | 1.79 | – | – | – | Cc1cc(NC(=O)c2cccnc2)nn1Cc1ccccc1 [Compound I-1-46] | 100 | 100 | 100% and 90% | – | – | –
29 | 0.79 | – | – | – | COCCn1nc(NC(=O)c2cccnc2)cc1C [Compound I-1-173] | 80 | 80 | 100% | – | – | –
30 | 0.94 | – | – | – | Cc1cc(NC(=O)c2cccnc2)nn1Cn1cccn1 [Compound I-1-225] | 100 | 100 | 100% | – | – | –
31 | 1.32 | – | – | – | O=C(Nc1ccn(-c2ccccn2)n1)c1cccnc1 [Compound I-1-52] | 100 | 100 | 90% | – | – | –
32 | 1.57 | – | – | – | Cc1cc(NC(=O)c2cccnc2)nn1C(=O)c1cccnc1 [Compound I-1-28] | 100 | 100 | 90% | – | – | –
33 | 1.17 | – | – | – | CSCCn1nc(N(C)C(=O)c2cccnc2)cc1C [Compound I-1-187] | 100 | 100 | 90% | – | – | –
